Test results published in patent publication US9085598B2, “Compounds targeting the cell invasion protein complex, their pharmaceutical compositions and methods of use thereof” (THE ROYAL INSTITUTE FOR THE ADVANCEMENT OF LEARNING/MCGILL …, priority 2011, dated 2015).

What was measured:
Experiment in all cases: In vitro kinase activity (Kinase-Glo luminescence)
Format in all cases: biochemical
VEGFR2 = target: T1, VEGFR2 (Homo sapiens, UniProt P35968)
T1 construct: Human recombinant full-length kinases were incubated in kinase buffer
Experimental: (§1) Human recombinant full-length kinases were incubated in kinase buffer containing ATP and substrate (Poly Glu:Tyr) for 4 hours at room temperature with or without the presence of the compounds listed in Table 1 at various concentrations. Remaining ATP in solution was then quantified using the Kinase-Glo-Iuminescence™ kit (Promega).

SGK3 = target: T2, SGK3 (Homo sapiens, UniProt Q96BR1)
T2 construct: Human recombinant full-length kinases were incubated in kinase buffer
Experimental: as §1

LYN = target: T3, LYN (Homo sapiens, UniProt P07948)
T3 construct: Human recombinant full-length kinases were incubated in kinase buffer
T3 sequence (P07948 whole entry): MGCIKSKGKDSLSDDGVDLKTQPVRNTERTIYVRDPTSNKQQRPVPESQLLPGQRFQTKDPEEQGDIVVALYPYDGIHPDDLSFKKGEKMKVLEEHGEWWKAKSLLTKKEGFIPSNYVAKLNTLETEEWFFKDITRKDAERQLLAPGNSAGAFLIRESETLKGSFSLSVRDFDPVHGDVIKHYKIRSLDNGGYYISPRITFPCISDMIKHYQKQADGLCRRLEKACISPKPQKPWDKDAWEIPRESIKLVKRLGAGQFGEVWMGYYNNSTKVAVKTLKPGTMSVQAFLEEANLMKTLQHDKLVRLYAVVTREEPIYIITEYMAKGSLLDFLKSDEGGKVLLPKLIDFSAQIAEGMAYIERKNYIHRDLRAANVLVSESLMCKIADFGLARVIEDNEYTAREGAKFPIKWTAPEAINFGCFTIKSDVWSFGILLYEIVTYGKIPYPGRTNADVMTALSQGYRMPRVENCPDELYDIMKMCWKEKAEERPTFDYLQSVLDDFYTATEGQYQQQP
Experimental: as §1

INSR = target: T4, INSR (Homo sapiens, UniProt P06213)
T4 construct: Human recombinant full-length kinases were incubated in kinase buffer
Experimental: as §1

AKT-1 = target: T5, AKT-1 (Homo sapiens, UniProt P31749); conditions: Table 2
T5 construct: Human recombinant full-length kinases were incubated in kinase buffer
Experimental: as §1

EGFR = target: T6, EGFR (Homo sapiens, UniProt P00533)
T6 construct: Human recombinant full-length kinases were incubated in kinase buffer
Experimental: as §1

IKK-ε = target: T7, IKK-ε (Homo sapiens, UniProt Q14164)
T7 construct: Human recombinant full-length kinases were incubated in kinase buffer
Experimental: as §1

SYK = target: T8, SYK (Homo sapiens, UniProt P43405)
T8 construct: Human recombinant full-length kinases were incubated in kinase buffer
Experimental: as §1

FLT3 = target: T9, FLT3 (Homo sapiens, UniProt P36888)
T9 construct: Human recombinant full-length kinases were incubated in kinase buffer
Experimental: as §1

FYN = target: T10, FYN (Homo sapiens, UniProt P06241)
T10 construct: Human recombinant full-length kinases were incubated in kinase buffer
Experimental: as §1

PAK1 = target: T11, PAK1 (Homo sapiens, UniProt Q13153)
T11 construct: Human recombinant full-length kinases were incubated in kinase buffer
Experimental: as §1

PIM1 = target: T12, PIM1 (Homo sapiens, UniProt P11309)
T12 construct: Human recombinant full-length kinases were incubated in kinase buffer
T12 sequence (P11309 whole entry): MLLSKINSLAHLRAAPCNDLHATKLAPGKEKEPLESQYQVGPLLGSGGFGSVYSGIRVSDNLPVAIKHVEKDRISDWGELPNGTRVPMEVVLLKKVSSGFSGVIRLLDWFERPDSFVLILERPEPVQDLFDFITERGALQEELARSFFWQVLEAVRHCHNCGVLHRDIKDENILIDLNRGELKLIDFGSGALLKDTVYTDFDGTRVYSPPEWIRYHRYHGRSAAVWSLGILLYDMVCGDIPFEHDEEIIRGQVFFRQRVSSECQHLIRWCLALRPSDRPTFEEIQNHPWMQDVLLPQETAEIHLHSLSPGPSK
Experimental: as §1

PDGFR-β = target: T13, PDGFR-β (Homo sapiens, UniProt P09619)
T13 construct: Human recombinant full-length kinases were incubated in kinase buffer
Experimental: as §1

IGF1R = target: T14, IGF1R (Homo sapiens, UniProt P08069)
T14 construct: Human recombinant full-length kinases were incubated in kinase buffer
Experimental: as §1

CDK1/Cyclin B = target: T15, CDK1/Cyclin B (Homo sapiens, UniProt P06493)
T15 construct: Human recombinant full-length kinases were incubated in kinase buffer
T15 sequence (P06493 whole entry): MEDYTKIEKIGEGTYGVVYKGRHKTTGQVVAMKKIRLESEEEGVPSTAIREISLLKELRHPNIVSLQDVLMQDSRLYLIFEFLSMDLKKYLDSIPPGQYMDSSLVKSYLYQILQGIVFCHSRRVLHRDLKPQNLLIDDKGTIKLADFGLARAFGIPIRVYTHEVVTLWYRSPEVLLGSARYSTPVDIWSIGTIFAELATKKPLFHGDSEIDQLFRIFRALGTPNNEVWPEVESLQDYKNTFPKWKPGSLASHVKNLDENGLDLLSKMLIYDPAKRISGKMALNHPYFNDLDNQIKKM
T15 sequence (P14635 whole entry partner): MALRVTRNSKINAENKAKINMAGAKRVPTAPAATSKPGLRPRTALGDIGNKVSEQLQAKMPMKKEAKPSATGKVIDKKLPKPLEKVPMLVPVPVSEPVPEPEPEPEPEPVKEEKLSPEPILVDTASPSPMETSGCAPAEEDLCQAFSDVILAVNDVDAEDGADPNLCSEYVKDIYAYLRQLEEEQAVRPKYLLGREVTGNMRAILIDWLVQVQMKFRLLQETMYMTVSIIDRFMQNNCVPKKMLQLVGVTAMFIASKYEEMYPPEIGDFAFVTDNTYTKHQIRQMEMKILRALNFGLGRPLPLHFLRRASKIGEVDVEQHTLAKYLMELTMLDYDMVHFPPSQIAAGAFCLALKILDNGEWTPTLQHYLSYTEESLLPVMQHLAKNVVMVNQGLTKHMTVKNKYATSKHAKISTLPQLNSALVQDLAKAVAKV
Experimental: as §1

YES1 = target: T16, YES1 (Homo sapiens, UniProt P07947)
T16 construct: Human recombinant full-length kinases were incubated in kinase buffer
Experimental: as §1

RPS6KA4 = target: T17, RPS6KA4 (Homo sapiens, UniProt O75676)
T17 construct: Human recombinant full-length kinases were incubated in kinase buffer
Experimental: as §1

MET = target: T18, MET (Homo sapiens, UniProt P08581)
T18 construct: Human recombinant full-length kinases were incubated in kinase buffer
Experimental: as §1

FAK = target: T19, FAK (Homo sapiens, UniProt Q05397); conditions: 1 μM; Table 2; read-out: % Inhibition FAK
T19 construct: Human recombinant full-length kinases were incubated in kinase buffer
Experimental: as §1

TIE1 = target: T20, TIE1 (Homo sapiens, UniProt P35590)
T20 construct: Human recombinant full-length kinases were incubated in kinase buffer
T20 sequence (P35590 22-1138): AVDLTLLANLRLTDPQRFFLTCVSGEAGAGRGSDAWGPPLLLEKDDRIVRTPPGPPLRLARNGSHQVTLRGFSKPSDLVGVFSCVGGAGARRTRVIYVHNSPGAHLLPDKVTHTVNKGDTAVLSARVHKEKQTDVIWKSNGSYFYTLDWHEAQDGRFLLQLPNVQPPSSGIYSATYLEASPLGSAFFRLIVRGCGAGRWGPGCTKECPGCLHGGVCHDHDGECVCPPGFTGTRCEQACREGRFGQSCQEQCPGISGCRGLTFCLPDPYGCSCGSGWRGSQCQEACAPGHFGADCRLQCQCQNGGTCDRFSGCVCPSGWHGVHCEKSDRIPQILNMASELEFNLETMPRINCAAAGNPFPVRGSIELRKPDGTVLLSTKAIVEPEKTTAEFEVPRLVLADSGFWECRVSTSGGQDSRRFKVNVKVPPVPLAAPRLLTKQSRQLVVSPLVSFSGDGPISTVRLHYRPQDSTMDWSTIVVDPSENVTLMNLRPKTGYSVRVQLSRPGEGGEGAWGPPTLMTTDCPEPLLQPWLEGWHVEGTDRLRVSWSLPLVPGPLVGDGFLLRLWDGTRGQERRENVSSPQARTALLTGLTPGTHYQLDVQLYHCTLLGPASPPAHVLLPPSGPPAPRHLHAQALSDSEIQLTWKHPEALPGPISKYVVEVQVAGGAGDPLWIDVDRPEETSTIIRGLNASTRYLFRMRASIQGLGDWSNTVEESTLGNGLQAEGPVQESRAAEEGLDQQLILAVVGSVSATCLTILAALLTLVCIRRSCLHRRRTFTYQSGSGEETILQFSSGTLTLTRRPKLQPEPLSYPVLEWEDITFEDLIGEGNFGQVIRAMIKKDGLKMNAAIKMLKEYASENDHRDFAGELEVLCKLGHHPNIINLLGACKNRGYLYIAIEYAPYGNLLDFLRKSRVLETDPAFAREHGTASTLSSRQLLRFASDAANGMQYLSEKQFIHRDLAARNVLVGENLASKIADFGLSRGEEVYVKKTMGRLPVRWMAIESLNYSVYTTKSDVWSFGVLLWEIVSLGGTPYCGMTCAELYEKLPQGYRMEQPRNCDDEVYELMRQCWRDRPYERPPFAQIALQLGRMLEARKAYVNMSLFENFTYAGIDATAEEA
Experimental: as §1

SRC = target: T21, SRC (Homo sapiens, UniProt P12931)
T21 construct: Human recombinant full-length kinases were incubated in kinase buffer
T21 sequence (P12931 whole entry): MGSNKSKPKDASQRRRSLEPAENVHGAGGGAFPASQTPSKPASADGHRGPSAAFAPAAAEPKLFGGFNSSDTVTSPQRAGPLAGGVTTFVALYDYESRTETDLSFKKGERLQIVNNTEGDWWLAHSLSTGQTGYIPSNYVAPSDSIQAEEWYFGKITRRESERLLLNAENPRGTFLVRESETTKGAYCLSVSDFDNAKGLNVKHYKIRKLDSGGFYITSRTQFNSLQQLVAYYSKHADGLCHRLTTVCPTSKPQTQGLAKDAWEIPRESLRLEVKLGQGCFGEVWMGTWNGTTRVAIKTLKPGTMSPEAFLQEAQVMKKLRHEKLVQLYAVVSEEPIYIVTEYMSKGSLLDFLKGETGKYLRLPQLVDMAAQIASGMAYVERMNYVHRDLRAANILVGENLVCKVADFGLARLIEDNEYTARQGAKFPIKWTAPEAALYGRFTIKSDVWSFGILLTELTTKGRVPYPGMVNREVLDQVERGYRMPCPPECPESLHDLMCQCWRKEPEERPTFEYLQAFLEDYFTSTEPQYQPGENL
Experimental: as §1

PKC-α = target: T22, PKC-α (Homo sapiens, UniProt P17252); conditions: Table 2
T22 construct: Human recombinant full-length kinases were incubated in kinase buffer
Experimental: as §1

HER2 = target: T23, HER2 (Homo sapiens, UniProt P04626)
T23 construct: Human recombinant full-length kinases were incubated in kinase buffer
Experimental: as §1

ABL1 = target: T24, ABL1 (Homo sapiens, UniProt P00519)
T24 construct: Human recombinant full-length kinases were incubated in kinase buffer
Experimental: as §1

TRKB = target: T25, TRKB (Homo sapiens, UniProt Q16620)
T25 construct: Human recombinant full-length kinases were incubated in kinase buffer
Experimental: as §1

Aurora A = target: T26, Aurora A (Homo sapiens, UniProt O14965)
T26 construct: Human recombinant full-length kinases were incubated in kinase buffer
Experimental: as §1

P38-γ = target: T27, P38-γ (Homo sapiens, UniProt P53778)
T27 construct: Human recombinant full-length kinases were incubated in kinase buffer
Experimental: as §1

FGFR1 = target: T28, FGFR1 (Homo sapiens, UniProt P11362)
T28 construct: Human recombinant full-length kinases were incubated in kinase buffer
T28 sequence (P11362 22-822): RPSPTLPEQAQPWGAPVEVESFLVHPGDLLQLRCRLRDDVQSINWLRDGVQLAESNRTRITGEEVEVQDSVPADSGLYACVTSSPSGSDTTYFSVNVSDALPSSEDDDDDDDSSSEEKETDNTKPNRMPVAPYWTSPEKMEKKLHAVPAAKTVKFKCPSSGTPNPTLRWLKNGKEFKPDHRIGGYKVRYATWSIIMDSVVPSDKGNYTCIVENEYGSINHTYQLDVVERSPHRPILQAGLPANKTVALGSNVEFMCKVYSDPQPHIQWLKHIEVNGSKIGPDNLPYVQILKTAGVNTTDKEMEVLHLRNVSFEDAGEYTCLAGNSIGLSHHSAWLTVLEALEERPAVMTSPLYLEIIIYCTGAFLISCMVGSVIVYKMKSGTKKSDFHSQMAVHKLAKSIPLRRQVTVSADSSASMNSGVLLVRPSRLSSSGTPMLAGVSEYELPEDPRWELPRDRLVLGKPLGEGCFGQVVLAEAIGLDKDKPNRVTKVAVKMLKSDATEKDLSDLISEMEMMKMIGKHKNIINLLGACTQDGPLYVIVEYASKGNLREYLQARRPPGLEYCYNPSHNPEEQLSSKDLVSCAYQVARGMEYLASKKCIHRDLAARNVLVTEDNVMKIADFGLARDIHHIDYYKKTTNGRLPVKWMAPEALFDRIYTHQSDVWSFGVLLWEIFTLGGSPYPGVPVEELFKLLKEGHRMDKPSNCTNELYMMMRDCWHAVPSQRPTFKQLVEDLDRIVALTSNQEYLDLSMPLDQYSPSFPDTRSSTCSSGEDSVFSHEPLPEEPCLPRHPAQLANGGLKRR
Experimental: as §1

Aurora B = target: T29, Aurora B (Homo sapiens, UniProt Q96GD4)
T29 construct: Human recombinant full-length kinases were incubated in kinase buffer
T29 sequence (Q96GD4 whole entry): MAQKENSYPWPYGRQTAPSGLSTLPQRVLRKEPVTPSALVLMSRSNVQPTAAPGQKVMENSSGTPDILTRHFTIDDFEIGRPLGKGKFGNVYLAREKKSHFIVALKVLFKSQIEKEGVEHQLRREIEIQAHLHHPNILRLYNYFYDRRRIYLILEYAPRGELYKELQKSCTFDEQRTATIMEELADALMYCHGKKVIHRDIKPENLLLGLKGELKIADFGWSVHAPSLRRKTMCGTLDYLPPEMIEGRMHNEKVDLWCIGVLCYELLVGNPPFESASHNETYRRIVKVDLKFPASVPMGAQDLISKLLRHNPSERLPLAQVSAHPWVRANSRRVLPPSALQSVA
Experimental: as §1

PLK4 = target: T30, PLK4 (Homo sapiens, UniProt O00444)
T30 construct: Human recombinant full-length kinases were incubated in kinase buffer
Experimental: as §1

DDR1 = target: T31, DDR1 (Homo sapiens, UniProt Q08345)
T31 construct: Human recombinant full-length kinases were incubated in kinase buffer
Experimental: as §1

EPHA1 = target: T32, EPHA1 (Homo sapiens, UniProt P21709)
T32 construct: Human recombinant full-length kinases were incubated in kinase buffer
Experimental: as §1

Measured: inhibition at 1 µM

O=c1c2ccccc2[se]n1-c1ccccc1 [Ebselen, reference compound]
1%: FAK
25%: PKC-α
22%: AKT-1
0%: all other assays above
